# Values joined by “and” are separate entries in the source; they are usually repeats but may differ in a detail not shown here. Identical values can stand only once. Like-named read-outs stand apart in the source and are kept apart here.
# Tests used:
# [1] = system: Splenic B cell from Balb/c nu/nu mice; assay: LPS-induced antibody production from mouse B cells in vitro; format: cell-based; details: Mouse spleen, stimulus LPS/IL-4, readout IgM, mean of at least two experiments
# Description: The LPS-induced B cell functions were investigated according to a protocol adapted from Moon (Moon et al 1989) with minor modifications: Splenic B cell from Balb/c nu/nu mice were cultured with mIL-4, mIL-5 and LPS in the presence of titrated amounts of compound. The final concentrations were 0.5×10^5 splenocytes/well, 500 U/ml mIL-4, 500 U/ml mIL-5, and 50 μg/ml LPS. Supernatants were analyzed for antibody production by ELISA after 6 days of incubation.
# [2] = system: Akt-phosphorylation in IgM+ B cells; assay: Time-dependent inhibition of Akt-phosphorylation ex vivo by a single oral dose in rats; set-up: species or system Lewis rats; details: 10 mg/kg p.o. single dose; for inhibition at 10 mg/kg: Rattus norvegicus, B-cell, po; for % inhibition of pAkt in IgM+ B cells: rat, individual rats 1-4, 10 mg/kg
# Description: All experiments were performed with adult male Lewis rats (LEW/Han/Hsd, Charles River, Germany and LEW/Orl@Rj, Janvier, France), weighing 220-280 g.
# The suspension for administration was freshly prepared and stored in the dark at room temperature. 14.8 mg of compound A was suspended in 5.92 ml CMC 0.5% with 0.5% Tween80. The milky, homogeneous suspensions were then applied to the animal. The test substances were administered p.o. at in a volume of 4 ml/kg body weight resulting in an oral dose of 10 mg/kg.
# Animals were anaesthetized with isoflurane using a Fluvac airflow system. Whole blood was collected sublingually pre-dose and at 1, 2, 4, 6, 8, 10, 12 and 24 hours post-dose. For pharmacodynamic analysis 100 μl rat blood was collected per time point in Eppendorf tubes with 30 IU sodium heparin (B. Braun, Melsungen, Germany; 5000 I.U./ml). For pharmacokinetic analysis 150 μl rat blood was collected per time point in EDTA coated Eppendorf (Milian cat# TOM-14) tubes.
# For ex vivo analysis of blood from drug-treated animals, […] heparinized blood was mixed in 5 ml U-bottom tubes (BD, cat#352063) with […] of RPMI medium (Gibco, cat#31870) immediately after blood collection, and activated with 10 μl of anti-rat IgM/rIL-4 at a final concentration of anti-rat IgM of […] and rIL-4 of 10 ng/ml. Control samples were left unstimulated. Samples were mixed thoroughly and incubated for 10 minutes at 37° C. in the water bath.
# After incubation, 2 ml of pre-warmed (37° C. in water bath) BD Phosflow Lyse/Fix buffer was added per tube. Samples were mixed thoroughly and incubated for 20 minutes at 37° C. in the water bath. Then samples were centrifuged at 400 g for 5 minutes. After centrifugation 2 ml of BD Phosflow Perm/wash buffer was added per tube. Samples were mixed thoroughly and incubated at room temperature (RT) in the dark for 10 minutes. Thereafter, the samples were snap-frozen on dry ice and then stored at −80° C. until FACS staining.
# For thawing, all samples were incubated for 10 minutes in the water bath at 25° C. After centrifugation at 400 g for 5 minutes the pellets were washed with 2 ml of BD Phosflow Perm/wash buffer and again centrifuged at 400 g for 5 minutes. Supernatants were removed. For analysis of pAkt, samples were stained with PE-labeled anti-rat IgM (BD, cat#553888) to allow gating on B cells in FACS analysis. In addition, samples were stained with Alexa647 conjugated anti-phospho-Akt (Ser473; BD, cat#560343). Staining procedures were performed in a total volume of 100 μl BD Phosflow Perm/wash buffer at RT for 30 minutes in the dark. After incubation, samples were washed with 2 ml of BD Phosflow Perm/wash buffer and centrifuged at 400 g for 5 minutes and the pellets were resuspended in 300 μl BD Stain Buffer (BD, cat#554656). Samples were kept on ice until data were acquired on an LSRII flow cytometer (BD Biosciences) using DIVA software (version 6.1.2). Lymphocytes were gated in the FSC/SSC dot blot according to size and granularity and further analyzed for expression of IgM and phosphorylation of Akt. Data were calculated from dot blots or histograms as percentage of cells positively stained for Akt-phosphorylation within the IgM+ population.
# The effects of the drugs ex vivo were expressed as inhibition of Akt-phosphorylation measured by flow cytometry. The percentage inhibition of Akt-phosphorylation was calculated by the following formula: […]
# Group of four Lewis rats were treated with a single oral dose of 10 mg/kg of compound A. At indicated time points, 50% rat whole blood was stimulated with anti-rat IgM/rIL-4 and Akt-phosphorylation was determined as described in the Method section.
structure (smiles),measurement,setting,value
"CCC(=O)N1CC[C@H](Nc2ncnc3c2CN(c2cnc(OC)c(C(F)(F)F)c2)CC3)C1 [Compound A, 1-{(S)-3-[6-(6-Methoxy-5-trifluoromethyl-pyridin-3-yl)-5,6,7,8-tetrahydro-pyrido[4,3-d]pyrimidin-4-ylamino]-pyrrolidin-1-yl}-propan-1-one]",IC50,[1],0.234 µM
same,inhibition at 10 mg/kg,"[2]; 0 h, time 0 h (pre-dose), mean of four animals, read-out: % inhibition of pAkt in IgM+ B cells, Average",0%
same,inhibition at 10 mg/kg,"[2]; 1 h, time 1 h, individual rats 1-4, read-out: % inhibition of pAkt in IgM+ B cells",100%
same,inhibition at 10 mg/kg,"[2]; 1 h, time 1 h, mean of four animals, read-out: % inhibition of pAkt in IgM+ B cells, Average",98.2%
same,inhibition at 10 mg/kg,"[2]; 2 h, time 2 h, individual rats 1-4, read-out: % inhibition of pAkt in IgM+ B cells",101%
same,inhibition at 10 mg/kg,"[2]; 2 h, time 2 h, mean of four animals, read-out: % inhibition of pAkt in IgM+ B cells, Average",99.6%
same,inhibition at 10 mg/kg,"[2]; 4 h, time 4 h, mean of four animals, read-out: % inhibition of pAkt in IgM+ B cells, Average",95.1%
same,inhibition at 10 mg/kg,"[2]; 6 h, time 6 h, mean of four animals, read-out: % inhibition of pAkt in IgM+ B cells, Average",88.2%
same,inhibition at 10 mg/kg,"[2]; 8 h, time 8 h, mean of four animals, read-out: % inhibition of pAkt in IgM+ B cells, Average",79.4%
same,inhibition at 10 mg/kg,"[2]; 10 h, time 10 h, individual rats 1-4, read-out: % inhibition of pAkt in IgM+ B cells",69%
same,inhibition at 10 mg/kg,"[2]; 10 h, time 10 h, mean of four animals, read-out: % inhibition of pAkt in IgM+ B cells, Average",70.7%
same,inhibition at 10 mg/kg,"[2]; 12 h, time 12 h, individual rats 1-4, read-out: % inhibition of pAkt in IgM+ B cells",74.3%
same,inhibition at 10 mg/kg,"[2]; 12 h, time 12 h, mean of four animals, read-out: % inhibition of pAkt in IgM+ B cells, Average",72.1%
same,inhibition at 10 mg/kg,"[2]; 24 h, time 24 h, mean of four animals, read-out: % inhibition of pAkt in IgM+ B cells, Average",30.2%
same,% inhibition of pAkt in IgM+ B cells,[2]; time 0 h (pre-dose),−2.0% and 15.7% and 6.9% and −20.6%
same,% inhibition of pAkt in IgM+ B cells,[2]; time 1 h,95.6% and 99.1%
same,% inhibition of pAkt in IgM+ B cells,[2]; time 2 h,97.3% and 101.8%
same,% inhibition of pAkt in IgM+ B cells,[2]; time 4 h,93.8% and 105.3% and 81.4%
same,% inhibition of pAkt in IgM+ B cells,[2]; time 6 h,76.1% and 99.1% and 94.7% and 83.1%
same,% inhibition of pAkt in IgM+ B cells,[2]; time 8 h,83.1% (2×) and 85.8% and 65.4%
same,% inhibition of pAkt in IgM+ B cells,[2]; time 10 h,76.9% and 62.7%
same,% inhibition of pAkt in IgM+ B cells,[2]; time 12 h,71.6% and 73.4%
same,% inhibition of pAkt in IgM+ B cells,[2]; time 24 h,30.8% and 40.6% and 37.0% and 12.2%

# Reference: patent publication US20190038628A1, “USE OF INHIBITORS OF THE ACTIVITY OR FUNCTION OF PI3K FOR THE TREATMENT OF PRIMARY SJOGREN'S SYNDROME” (Novartis AG, priority 2016, published 2019)
